From the supplement of paper PMC10307832

Columns and labels:
Assay in all cases: relative viability (nuclei count vs DMSO), 5 days (fraction); higher = more cells survive
[1] = test system: A-427
Procedure, shortened: (§1)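 Cells from lung cancer lines were seeded into 1536-well plates and, one day later, dosed by pin tool. Treatments were either a single drug or a fixed dose of an anchor drug with five library-drug doses (not always all listed) in √10 steps. After 5 days, nuclei were stained in a one-step fixation (final 0.05% Triton X-100, 1% formaldehyde, 1 ug/ml Hoechst) and counted on 4× images, and relative viability is the treated-to-vehicle nuclei ratio, as the median of duplicate plates.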

[2] = test system: COR-L 105
Procedure, shortened: as §1

[3] = test system: EPLC-272H
Procedure, shortened: as §1

[4] = test system: HCC-366
Procedure, shortened: as §1

[5] = test system: HCC-78
Procedure, shortened: as §1

[6] = test system: HOP-62
Procedure, shortened: as §1

[7] = test system: LC-2-ad
Procedure, shortened: as §1

[8] = test system: LCLC-97TM1
Procedure, shortened: as §1

[9] = test system: LU99A
Procedure, shortened: as §1

[10] = test system: LXF-289
Procedure, shortened: as §1

[11] = test system: NCI-H1755
Procedure, shortened: as §1

[12] = test system: NCI-H1792
Procedure, shortened: as §1

[13] = test system: NCI-H1793
Procedure, shortened: as §1

[14] = test system: NCI-H1915
Procedure, shortened: as §1

[15] = test system: NCI-H1944
Procedure, shortened: as §1

[16] = test system: NCI-H1975
Procedure, shortened: as §1

[17] = test system: NCI-H2085
Procedure, shortened: as §1

[18] = test system: NCI-H2170
Procedure, shortened: as §1

[19] = test system: NCI-H358
Procedure, shortened: as §1

[20] = test system: NCI-H460
Procedure, shortened: as §1

[21] = test system: SK-LU-1
Procedure, shortened: as §1

[22] = test system: SW 900
Procedure, shortened: as §1

[23] = test system: UMC-11
Procedure, shortened: as §1

## C=C1C(=O)O[C@@H](CCCCCCCC)[C@@H]1C(=O)O [C-75] + N=C(N)NC(=N)NCCc1ccccc1 [Phenformin] (partner 250 µM)
[1]; first compound 0.08 µM
  relative viability: 0.361
[1]; first compound 0.253 µM
  relative viability: 0.342
[1]; first compound 0.8 µM
  relative viability: 0.33
[1]; first compound 2.53 µM
  relative viability: 0.284
[1]; first compound 8 µM
  relative viability: 0.303
[2]; first compound 0.08 µM
  relative viability: 0.507
[2]; first compound 0.253 µM
  relative viability: 0.485
[2]; first compound 0.8 µM
  relative viability: 0.547
[2]; first compound 2.53 µM
  relative viability: 0.436
[2]; first compound 8 µM
  relative viability: 0.436
[3]; first compound 0.08 µM
  relative viability: 0.33
[3]; first compound 0.253 µM
  relative viability: 0.281
[3]; first compound 0.8 µM
  relative viability: 0.276
[3]; first compound 2.53 µM
  relative viability: 0.28
[3]; first compound 8 µM
  relative viability: 0.271
[4]; first compound 0.08 µM
  relative viability: 0.586
[4]; first compound 0.253 µM
  relative viability: 0.634
[4]; first compound 0.8 µM
  relative viability: 0.61
[4]; first compound 8 µM
  relative viability: 0.571
[5]; first compound 0.08 µM
  relative viability: 0.844
[5]; first compound 0.253 µM
  relative viability: 0.849
[5]; first compound 0.8 µM
  relative viability: 0.544
[5]; first compound 2.53 µM
  relative viability: 0.595
[5]; first compound 8 µM
  relative viability: 0.625
[6]; first compound 0.08 µM
  relative viability: 0.691
[6]; first compound 0.253 µM
  relative viability: 0.718
[6]; first compound 0.8 µM
  relative viability: 0.647
[6]; first compound 2.53 µM
  relative viability: 0.616
[6]; first compound 8 µM
  relative viability: 0.601
[7]; first compound 0.08 µM
  relative viability: 0.561
[7]; first compound 0.253 µM
  relative viability: 0.566
[7]; first compound 0.8 µM
  relative viability: 0.544
[7]; first compound 2.53 µM
  relative viability: 0.483
[7]; first compound 8 µM
  relative viability: 0.54
[8]; first compound 0.08 µM
  relative viability: 0.421
[8]; first compound 0.253 µM
  relative viability: 0.487
[8]; first compound 0.8 µM
  relative viability: 0.355
[8]; first compound 2.53 µM
  relative viability: 0.372
[8]; first compound 8 µM
  relative viability: 0.431
[9]; first compound 0.08 µM
  relative viability: 0.848
[9]; first compound 0.253 µM
  relative viability: 0.863
[9]; first compound 0.8 µM
  relative viability: 0.816
[9]; first compound 2.53 µM
  relative viability: 0.749
[9]; first compound 8 µM
  relative viability: 0.641
[10]; first compound 0.08 µM
  relative viability: 0.504
[10]; first compound 0.253 µM
  relative viability: 0.543
[10]; first compound 0.8 µM
  relative viability: 0.514
[10]; first compound 2.53 µM
  relative viability: 0.452
[10]; first compound 8 µM
  relative viability: 0.507
[11]; first compound 0.08 µM
  relative viability: 0.633
[11]; first compound 0.253 µM
  relative viability: 0.587
[11]; first compound 0.8 µM
  relative viability: 0.577
[11]; first compound 2.53 µM
  relative viability: 0.529
[11]; first compound 8 µM
  relative viability: 0.607
[12]; first compound 0.08 µM
  relative viability: 0.236
[12]; first compound 0.253 µM
  relative viability: 0.216
[12]; first compound 2.53 µM
  relative viability: 0.113
[12]; first compound 8 µM
  relative viability: 0.206
[13]; first compound 0.08 µM
  relative viability: 0.365
[13]; first compound 0.253 µM
  relative viability: 0.362
[13]; first compound 0.8 µM
  relative viability: 0.287
[13]; first compound 2.53 µM
  relative viability: 0.29
[13]; first compound 8 µM
  relative viability: 0.486
[14]; first compound 0.08 µM
  relative viability: 0.361
[14]; first compound 0.253 µM
  relative viability: 0.375
[14]; first compound 0.8 µM
  relative viability: 0.368
[14]; first compound 2.53 µM
  relative viability: 0.318
[14]; first compound 8 µM
  relative viability: 0.325
[15]; first compound 0.08 µM
  relative viability: 0.21
[15]; first compound 0.253 µM
  relative viability: 0.163
[15]; first compound 0.8 µM
  relative viability: 0.179
[15]; first compound 8 µM
  relative viability: 0.187
[16]; first compound 0.08 µM
  relative viability: 0.403
[16]; first compound 0.253 µM
  relative viability: 0.398
[16]; first compound 0.8 µM
  relative viability: 0.389
[16]; first compound 2.53 µM
  relative viability: 0.345
[16]; first compound 8 µM
  relative viability: 0.412
[17]; first compound 0.08 µM
  relative viability: 0.827
[17]; first compound 0.253 µM
  relative viability: 0.693
[17]; first compound 0.8 µM
  relative viability: 0.629
[17]; first compound 2.53 µM
  relative viability: 0.63
[17]; first compound 8 µM
  relative viability: 0.67
[18]; first compound 0.08 µM
  relative viability: 0.469
[18]; first compound 0.253 µM
  relative viability: 0.453
[18]; first compound 0.8 µM
  relative viability: 0.419
[18]; first compound 2.53 µM
  relative viability: 0.404
[18]; first compound 8 µM
  relative viability: 0.481
[19]; first compound 0.08 µM
  relative viability: 0.306
[19]; first compound 0.253 µM
  relative viability: 0.328
[19]; first compound 0.8 µM
  relative viability: 0.296
[19]; first compound 2.53 µM
  relative viability: 0.326
[19]; first compound 8 µM
  relative viability: 0.215
[20]; first compound 0.08 µM
  relative viability: 0.511
[20]; first compound 0.253 µM
  relative viability: 0.534
[20]; first compound 0.8 µM
  relative viability: 0.501
[20]; first compound 8 µM
  relative viability: 0.516
[21]; first compound 0.08 µM
  relative viability: 0.52
[21]; first compound 0.253 µM
  relative viability: 0.524
[21]; first compound 0.8 µM
  relative viability: 0.515
[21]; first compound 2.53 µM
  relative viability: 0.425
[21]; first compound 8 µM
  relative viability: 0.423
[22]; first compound 0.08 µM
  relative viability: 0.642
[22]; first compound 0.253 µM
  relative viability: 0.58
[22]; first compound 0.8 µM
  relative viability: 0.513
[22]; first compound 2.53 µM
  relative viability: 0.535
[22]; first compound 8 µM
  relative viability: 0.495
[23]; first compound 0.08 µM
  relative viability: 0.335
[23]; first compound 0.253 µM
  relative viability: 0.346
[23]; first compound 0.8 µM
  relative viability: 0.325
[23]; first compound 2.53 µM
  relative viability: 0.278
[23]; first compound 8 µM
  relative viability: 0.272
